Laboratory results as given in PubChem BioAssay (NCI).
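96-well plates; 48 h exposure; 5 concentrations. Endpoints by linear interpolation between flanking doses. Not reached: highest tested concentration assigned. TGI: total growth inhibition.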

Experiments:
Test in all cases: DTP human tumour cell line panel, 48 h
MDA-MB-435 = tested on: MDA-MB-435
HOP-92 NSCLC = tested on: HOP-92 NSCLC
NCI/ADR-RES ovarian = tested on: NCI/ADR-RES ovarian
BT-549 breast = tested on: BT-549 breast
EKVX NSCLC = tested on: EKVX NSCLC
RXF 393 renal = tested on: RXF 393 renal
COLO 205 colon = tested on: COLO 205 colon
OVCAR-5 ovarian = tested on: OVCAR-5 ovarian
HT29 colon = tested on: HT29 colon
A549 NSCLC = tested on: A549 NSCLC
MDA-MB-231 breast = tested on: MDA-MB-231 breast
MDA-N = tested on: MDA-N
NCI-H226 lung = tested on: NCI-H226 lung
MCF7 breast = tested on: MCF7 breast
UACC-257 melanoma = tested on: UACC-257 melanoma
SK-OV-3 ovarian = tested on: SK-OV-3 ovarian
NCI-H23 lung = tested on: NCI-H23 lung
IGROV1 ovarian = tested on: IGROV1 ovarian
UO-31 renal = tested on: UO-31 renal
SK-MEL-28 melanoma = tested on: SK-MEL-28 melanoma
A498 renal = tested on: A498 renal
UACC-62 melanoma = tested on: UACC-62 melanoma
HOP-62 NSCLC = tested on: HOP-62 NSCLC
TK-10 renal = tested on: TK-10 renal
HS 578T breast = tested on: HS 578T breast
OVCAR-4 ovarian = tested on: OVCAR-4 ovarian
HCT-116 colon = tested on: HCT-116 colon
K-562 leukemia = tested on: K-562 leukemia
PC-3 prostate = tested on: PC-3 prostate
RPMI-8226 leukemia = tested on: RPMI-8226 leukemia
U251 CNS = tested on: U251 CNS
MOLT-4 leukemia = tested on: MOLT-4 leukemia
SF-295 CNS = tested on: SF-295 CNS
CAKI-1 renal = tested on: CAKI-1 renal
SK-MEL-2 melanoma = tested on: SK-MEL-2 melanoma
SNB-75 CNS = tested on: SNB-75 CNS
NCI-H522 lung = tested on: NCI-H522 lung
CCRF-CEM leukemia = tested on: CCRF-CEM leukemia
KM12 colon = tested on: KM12 colon
SW-620 colon = tested on: SW-620 colon
SK-MEL-5 melanoma = tested on: SK-MEL-5 melanoma
HL-60(TB) leukemia = tested on: HL-60(TB) leukemia
ACHN renal = tested on: ACHN renal
NCI-H460 lung = tested on: NCI-H460 lung
LOX IMVI melanoma = tested on: LOX IMVI melanoma
HCT-15 colon = tested on: HCT-15 colon
M14 melanoma = tested on: M14 melanoma
SNB-19 CNS = tested on: SNB-19 CNS
786-0 renal = tested on: 786-0 renal
OVCAR-8 ovarian = tested on: OVCAR-8 ovarian
HCC-2998 colon = tested on: HCC-2998 colon
OVCAR-3 ovarian = tested on: OVCAR-3 ovarian
DU-145 prostate = tested on: DU-145 prostate
SF-268 CNS = tested on: SF-268 CNS
MALME-3M melanoma = tested on: MALME-3M melanoma
SN12C renal = tested on: SN12C renal
SF-539 CNS = tested on: SF-539 CNS
SR leukemia = tested on: SR leukemia

Measured: TGI

Cc1ccc2nc(-n3c(/C=C/c4ccccc4O)nc4ccccc4c3=O)sc2c1
not listed: SF-268 CNS | MALME-3M melanoma | SN12C renal | SF-539 CNS | SR leukemia
> 100 µM: all other assays above

O=C1C(=C/C=C2/SC(c3ccccc3)(c3ccccc3)c3ccccc32)C(=O)c2ccccc21
not listed: SK-MEL-2 melanoma | CCRF-CEM leukemia | HL-60(TB) leukemia | SR leukemia
> 100 µM: all other assays above

O=C(CN1CCN(c2ccccc2)CC1)c1ccc2[nH]c(=O)oc2c1
not listed: HOP-92 NSCLC | A549 NSCLC | UO-31 renal | OVCAR-4 ovarian | NCI-H522 lung | SK-MEL-5 melanoma | SNB-19 CNS | HCC-2998 colon
> 100 µM: all other assays above
